Measurements reported in patent US20100311726A1, “REDUCTION OF BETA-AMYLOID LEVELS BY TREATMENT WITH THE SMALL MOLECULE DIFFERENTIATION-INDUCING FACTOR” (priority 2007, published 2010).

Experiments:
[1] = test system: cyclin D1; test: Cyclin D1 level by western blot
Description: Following treatment of each cell line with or without DIF-1 (1-30 μM) and/or other inhibitors, cells were lysed in cold RIPA buffer (20 mM Tris-HCl (pH 7.4) buffer containing 150 mM NaCl, 2 mM EDTA, 1% Nonidet® P-40 (NP-40), 50 mM NaF, 1 mM Na3VO4, 1 mM Na2MoO4, 10 mg/ml aprotinin, and 10 mg/ml leupeptin), supplemented with protease inhibitor tablets from Roche (Switzerland). Protein amounts were quantified in triplicate using the BCA assay from Pierce. Equal amounts of protein extracts were fractionated by sodium dodecyl sulfate polyacrylamide gel electrophoresis (SDS-PAGE) and transferred to polyvinylidene difluoride membranes. The membranes were blocked for 1 hour with 5% fat-free powdered milk or 5% BSA, incubated overnight at 4° C. with primary antibodies (1:1000 or 1:5000), washed with TTBS and then incubated at room temperature with appropriate peroxidase-conjugated secondary antibodies (1:5000). Blots were repeatedly washed with TTBS and target proteins were detected using an enhanced chemiluminescence (ECL) system (Amersham Pharmacia Biotech, New Jersey, USA) and XOMAT™ Kodak® film.
Densitometry analysis of western blot data was performed on a PC computer using QuantityOne® software obtained from Bio-Rad® Laboratories, Inc. (California, USA). Loading variations between western blot lanes were normalized according to the GAPDH signal prior to any experimental quantification. Each western blot presented in the figures is representative of at least five independent experiments to ensure reproducibility of the results unless noted otherwise.
CHO-CAB cells were treated with lithium chloride (10mM). […] To ensure that the results observed were due to proteasome inhibition, we assessed the effects of lactacystin and ALLN on cyclin D1 levels. […] The data represents that of three separate experiments.

[2] = test system: human APLP2; test: APLP2 CTF levels in CHO cells expressing APLP2; type: cell-based; settings: co-treatment of DIF-1 and DAPT
From the text: To ascertain if DIF-1 indiscriminately perturbs the metabolism of type I transmembrane proteins we investigated the processing of other γ-secretase substrates.

[3] = test system: Aβ40; test: Secreted Aβ40 sandwich ELISA of conditioned media; type: cell-based, human
Description: The levels of secreted Aβ from CHO-7W cells stably overexpressing APP^751 and CHO-CAB cells that overexpress APP^751 and human BACE1 was quantified by ELISA and viewed by western blot using the monoclonal anti-APP antibody (6E10) that recognizes residues 1-17 of Aβ. Cells (5×10^5) were deposited into 6-well tissue culture dishes in triplicate and allowed to settle and grow for 24 hours. At this time, the media was aspirated and the cells were washed 2× in warm PBS. Fresh media (2 mL) and media supplemented with vehicle or DIF-1 was added to each well. […] Since DIF-1 exerts a cytostatic effect, the cell number was counted for all treatments upon removal of the conditioned media and used to normalize the levels of Aβ. […] The concentration of Aβ40 and Aβ42 was subsequently detected in triplicate using the β-Amyloid 1-40 or 1-42 Colorimetric ELISA kit (Biosource International, Inc.) according to the manufacturer's instructions.
We then looked at what effect this had on the levels of secreted soluble APP and Aβ production. […] The conditioned media was analyzed using anti-APP antibody 6E10 in order to detect total βP levels and sαAPP levels since it recognizes the amino acids 1-17 of Aβ and thus cannot detect sβAPP. […] The blots were analyzed using a phosphorimager. […]

[4] = test system: APP ubiquitin-conjugates; test: APP ubiquitin-conjugates by immunoprecipitation and western blot; settings: CHO-CAB
Description: For immunoprecipitations, 1 mg of total protein was diluted with extraction buffer and precleared with protein G-conjugated agarose beads (Pierce). The precleared samples were incubated overnight with anti-APP antibodies or nonimmune IgG (Jackson Laboratories). Immunocomplexes were captured with Protein G agarose beads, washed five times with extraction buffer and heated for 5 min at 95° C. in SDS gel-loading buffer.
CHO-CAB cell protein extracts (1 mg) were immunoprecipitated using APP antibodies. The immunoprecipitated complexes were analyzed by western blotting using anti-ubiquitin antibodies. […] Molecular Weight markers (kDa) are shown on the left. GAPDH levels are shown below each blot. The data represents that of three separate experiments.
To determine whether the proteasome-mediated degradation of APP is accompanied by increased levels of poly-ubiquitinated APP, we investigated the ubiquitination status of APP in extracts of CHO-CAB cells treated in the absence or presence of DIF-1 (30 μM), lactacystin (10 μM), ALLN (10 μM), DIF-1+lactacystin and DIF-1+ALLN.

[5] = neutral pH; cited from earlier work
[6] = test system: naïve CHO cells; test: Flow cytometry cell cycle distribution, naive CHO; type: cell-based, Chinese Hamster; settings: 25 μM overnight
Description: Naïve and CHO-7W cells were collected by trypsin/EDTA treatment and counted using a haemocytometer. The cells (1×10^5) were deposited into 10 cm tissue culture dishes containing fresh media and grown for 24 hours prior to DIF-1 treatment (25 μM). Cells were grown in the presence of DIF-1 for approximately 20 hours. Cells harvested by the trypsin/EDTA treatment were suspended in hypotonic fluorochrome solution containing 50 ug/ml of propidium iodide, 0.1% sodium citrate, and 0.1% Triton X-100. Cells (5×10^4) for each sample were analyzed for fluorescence using the Massachusetts General Hospital cytology core. Cell cycle distribution was compared between vehicle and DIF-1 treated nave CHO cells, and CHO-7W cells. The percentage of cells in G0/G1, S-phase and G2/M represents the mean cell number±the standard deviation from at least 3 separate experiments.
To determine where in the cell cycle DIF-1 acts, we assessed the cell cycle distribution of naïve CHO cells using flow cytometry (FIG. 1B). CHO cells were incubated with DIF-1 (25 μM) for the indicated periods and then harvested by the trypsin/EDTA treatment, fixed and stained with propidium iodide (PI) and fluorescence of nuclei was measured. Histogram peaks are labeled by phases (G0/G1, S and G2/M). The percentages of cell number in the cell cycle phases are shown as means+/−S.E. of three independent experiments performed in duplicate. […]

## CCCCCC(=O)c1c(O)c(Cl)c(OC)c(Cl)c1O [DIF-1, 1-[3,5-dichloro-2,6-dihydroxy-4-methoxyphenyl]-1-hexanone]
[1]; 30 μM, 18-20 hours, CHO-CAB cells and mouse embryonic fibroblasts
  reduction of cyclin D1 level: ~82.56±0.74%
[1]; CHO-7W, 30 μM DIF-1 or 250 nM DAPT
  effect on cyclin D1 level: markedly decreased
[1]; CHO-CAB
  effect on cyclin D1 accumulation, co-treatment with lactacystin or ALLN: inhibited the accumulation of cyclin D1
[2]
  APLP2 CTF levels: decrease in APLP2 CTF levels
[3]; CHO-7W, 30 μM overnight
  reduction of secreted Aβ40: about 48.5±0.91%
[3]; conditioned media from either CHO-7W or CHO-CAB cells
  reduction of secreted levels of Aβ40: 44.2±3.4%
[4]
  APP ubiquitin conjugates, treatment with both lactacystin and DIF-1: only slightly reduced
  APP ubiquitin-conjugates, co-treatment with ALLN: prevented the accumulation APP ubiqutin-conjugates
[4]; DIF-1 30 μM, lactacystin 10 μM, ALLN 10 μM
  level of APP ubiquitin-conjugates (single agent): decreased levels of APP ubiquitin-conjugates
[5]
  solubility: soluble in both water and hexane
[6]
  percentage of cells in G0/G1: 52.6%±0.9
